Measured values from patent US4987125A, “Antithrombotic activity of the triterpenoids of ilex pubescens and the conversion method of the triterpenoids of ilex pubescens having no antithrombotic activity into the triterpenoids having antithrombotic activity” (Cheil Sugar & Co., Ltd., priority 1988, dated 1991).
“Also recorded” adds a separate entry of the source.

Tests used:
[1] = test system: Malondialdehyde (MDA) produced by platelet; test: Inhibition of malondialdehyde (MDA) generation by thrombin-stimulated platelets (TBA method); assay type: cell-based, rats (Male Sprague-Dawley); conditions: rat platelet
Procedure: A platelet is agglutinated by the stimulus on thrombin. TXA2 is released by this stimulation, and it accelerated the agglutination of the platelet. And the malondialdehyde(MDA) is released with TXA2 . It is conducted whether the extract of the Ilex pubescens inhibits the production of MDA (Determination of Melondialdehyde) or not by the colorimetry method. As the extraction solvent, methanol, butanol and water are used. […] Their structures are as follows:
Male Sprague-Dawley rats, weightin 180-200 g, were used in experiment. Blood was collected by the same method with (test 1-2). 100 sample was let stand for 20 minutes, in polypropylene tube. It was centrifuged (1400 r.p.m. for 20 minutes) at 10° C. to obtain platelet rich plasma (PRP). PRP was recentrifuged (2800 r.m.p., for 20 minutes) at 10° C. to obtain precipitated platelet pellet. Platelet was suspended in 0.01 M of pH 7.4 phosphate buffer (1×10^9 cell/ml). To the platelet suspension, 100 µl of methanol extracts of Ilex pubescens was added and the reaction mixture was preincubated in thermostat of 37° C. for 20 minutes. 50 µl of thrombin (10 U) was then added to agglutinate the platelet, and thiobarbituric acid (TBA) was added as the couple. This reaction mixture was extracted by 2 ml of n-butanol and the n-butanol phase was separated by centrifugation (1200 r.p.m. for 10 minutes) at 30° C. The absorbance of n-butanol phase was observed by UV-spectrophotometer at 534 nm.
1 kg of root of Ilex pubescens was powdered and the powder of Ilex pubescens was extracted 4 times with each 500 ml of 70% methanol by heating in water bath. […] 12 g of methanol extract was suspended in the small amount of water and extracted with butanol several times. […] 12 g of methanol extract of Ilex pubescens, 4.1 g of butanol fraction and 6 g of water fraction were dissolved to 20 ml of methanol solutions, respectively. 1m1 of each solution was taken in test tube and methanol was removed under nitrogen atmosphere. Residue was suspended in 1m1 of 0.01 M phosphate buffer. 0.1 ml of suspension was used as sample.
*1 ml of washed platelet (1 × 10^9 cells/ml) of rats was
preincubated (37° C. for 30 minutes) with 0.1 ml of sample in 0.01
M phosphate buffer (pH 7.4, in normal saline). Then, to the agglutinated
platelet, 50 μl of bovine thrombin (10 U) was added.
**MDA was determined by the method of TBA. Each value is the mean of 2
Therefore, 4.1 g of butanol fraction was dissolved in 10 ml of methanol and chromatographed on Sephadex LH-20 column (Sigma Co., 3.8×66 cm) with methanol as eluant. After the first eluate (260 ml) corresponding to the void volume of the column was eluted, the eluate was collected in test tubes at the volume of 21ml. 12 fractions were obtained.
Each fraction was dissolved in 10 ml of methanol and 0.5 ml of methanol solution was taken. The solvent was evaporated under nitrogen atmosphere. The residue was suspended in 1m1 of 0.01 M phosphate buffer and 0.1m1 was used as sample. Inhibition of MDA generation was measured by the same method with Test 2-1).
*4.1 g of butanol extract was chromatographed on Sephadex LH20 column (3,
× 66 cm) with methanol as eluant.
**Each fraction was dissolved in 10 ml of methanol and 0.5 ml of solution

thromboxane synthase = conditions: known property; cited from earlier work

Row | Compound | inhibition of MDA generation, result in words [1] | also measured
1 | C[C@H]1CC[C@]2(C(=O)O)CC[C@]3(C)C(=CC[C@@H]4[C@@]5(C)CC[C@H](O[C@@H]6OC[C@@H](O)[C@H](O)[C@H]6O[C@@H]6O[C@H](CO)[C@@H](O)[C@H](O)[C@H]6O)C(C)(C)[C@@H]5CC[C@]43C)[C@@H]2[C@]1(C)O [Ilexoside D] | exhibited the greatest antithrombic activity | inhibition of MDA generation, result in words ([1]; listed as ilexoside D): effective; also recorded: inhibits MDA production
2 | c1c[nH]cn1 [Imidazole] | – | inhibition of thromboxane synthase, in words (thromboxane synthase): known as the inhibitor of thromboxane synthase
3 | C[C@@H]1O[C@@H](O[C@H]2[C@H](O[C@H]3[C@H](O[C@H]4CC[C@]5(C)[C@H]6CC=C7[C@H]8[C@](C(=O)O[C@@H]9O[C@H](CO)[C@@H](O)[C@H](O)[C@H]9O)(CC[C@H](C)[C@@]8(C)O)CC[C@@]7(C)[C@]6(C)CC[C@H]5C4(C)C)OC[C@@H](O)[C@@H]3O)O[C@H](CO)[C@@H](O)[C@@H]2O)[C@H](O)[C@H](O)[C@H]1O [Ilexoside O] | exhibited no effect | inhibition of MDA generation, result in words ([1]; listed as ilexoside O): ineffective
4 | Prosapogenin A | did not inhibit MDA generation | –
5 | C[C@H]1CC[C@]2(C(=O)O[C@@H]3O[C@H](CO)[C@@H](O)[C@H](O)[C@H]3O)CC[C@]3(C)C(=CC[C@@H]4[C@@]5(C)CC[C@H](O[C@@H]6OC[C@@H](O)[C@H](O)[C@H]6O[C@@H]6O[C@H](CO)[C@@H](O)[C@H](O)[C@H]6O)C(C)(C)[C@@H]5CC[C@]43C)[C@@H]2[C@]1(C)O [Ilexoside K] | had no effect; also recorded: ineffective | –
6 | CC1CCC2(C(=O)O)CCC3(C)C(=CCC4C5(C)CCC(O)C(C)(C(=O)O)C5CCC43C)C2C1(C)O (stereo not drawn) [Pubescenic acid] | inhibits MDA production | IC50 (concentration inhibiting 50% of MDA generation) ([1]; isolated components, imidazole as control): 0.41 mg
